# Experimental data: patent publication US20240261375A1, “PHARMACEUTICAL COMPOSITION FOR TREATING OR PREVENTING DISORDER ASSOCIATED WITH ADMINISTRATION OF ANTICANCER AGENT” (LTT BIO-PHARMA CO., LTD., priority 2021, published 2024)
# Like-named read-outs stand apart in the source and are kept apart here.
# Tests used:
# [1] = test system: liver of OXA-treated rats; experiment: Pathological assessment of liver disorder caused by oxaliplatin (HE staining); format: in vivo, rat; conditions: PC-SOD 1 mg/kg, mangafodipir dose not given, FIG. 5
# Excerpt: A liver tissue was collected and fixed with 10% neutral buffered formalin to prepare a paraffin block by using Histos 5 (Milestone) and an embedding center (EG1160, Leica). The sample block was thinly sliced at a thickness of 3 μm by using a microtome (MR2245, Leica) to prepare a slide. The prepared slide was stained by HE staining, enclosed, and observed at 200 and 400-fold magnifications by using the optical microscope function of All-in-One Fluorescence Microscope (BZ-X800, Keyence Corporation). Observation and assessment were performed by observing the whole section. Two to four representative tissue images were randomly taken up, and alteration in the tissue structure, such as inflammation and necrosis, was observed and assessed (Scale bar=200 μm).
# [2] = test system: PC12 cells differentiated by NGF; experiment: Neurite retraction in NGF-differentiated PC12 cells caused by anticancer agents; format: cell-based, rat; conditions: oxaliplatin 20 μM, 24 hours, FIG. 8
# Experimental: Rat adrenal gland pheochromocytoma-derived PC12 cells are known to be differentiated into neuron-like cells having neurites by nerve growth factor (NGF) and are widely used as a nerve cell model. To assess the neurite-protective action of PC-SOD, the effect of PC-SOD in neurite disorder caused by various anticancer agents was analyzed by using PC12 cells differentiated by NGF.
# PC12 cells were seeded on a 24-well plate coated with collagen at 5 000 cells/well. […] The images of cells were captured by using a microscope (BZ-X800, Keyence Corporation), and the neurite lengths were measured by using an image analysis software ImageJ (NIH).
# (§1) PC12 cells were seeded on a 24-well plate coated with collagen at 5 000 cells/well. […] After neurite elongation, cells were cultured by using differentiation media each containing carboplatin (with a final concentration of 50 μM) alone or carboplatin and PC-SOD (with final concentrations of 10, 20, 50, and 100 μg/mL) for 24 hours. The images of cells were captured by using a microscope (BZ-X800, Keyence Corporation), and the neurite lengths were measured by using an image analysis software ImageJ (NIH).
# as §1, with “containing paclitaxel (abbreviated as PTX in the figure of results) alone” for “containing carboplatin”, “of 0.1” for “of 50”, “μM)” for “μM) alone”, “or paclitaxel” for “or carboplatin”, “10,” for “10, 20,”
# [3] = test system: Large intestine cancer cells (colo320, HCT116); experiment: Proliferation of large intestine cancer cells (CCK-8); format: cell-based; conditions: OXA alone, 3-fold dilutions from 100 μM, 72 hours; FIG. 6
# Experimental: Large intestine cancer cells (colo320, HCT116) were added to RPM1640 medium (Thermo Fisher Scientific Inc.) containing 10% fetal bovine serum and 100 units/mL penicillin-streptomycin (Gibco BRL) and cultured at 37° C. in a 5% CO2 incubator.
# Cells were seeded on a 96-well plate at 10 000 cells/well and treated with a test solution 24 hours later. A test solution containing OXA alone was diluted 3-fold from 100 μM (10 levels) and added to a 96-well plate. A test solution containing OXA+PC-SOD was obtained by adding the same concentrations of OXA to PC-SOD (50 μg/mL) (n=3 per group). After cells were cultured for 72 hours, a CCK-8 solution was added in a volume of 1/10 of the solution in each well, and the mixture was measured at 490 nm of absorbance (Tecan, Tecan Japan). Data were expressed with mean±standard error (SEM). It should be noted that experiment conditions were allowed to be changed as required.
# RAW cells [4] = experiment: Toxicity of anticancer agents against RAW cells (CellTiter-Glo viable cell count); format: cell-based
# Experimental: RAW cells were seeded on a 96-well plate at 20 000 cells/well (D-MEM high glucose medium containing 10% inactivated FBS). […] The number of viable cells was counted 24 hours later by measuring chemical luminescence by using CellTiter-Glo™ 2.0 Cell Viability Assay (Promega) and a plate reader (Tecan, Infinite M Plex). Cells for four wells were analyzed for each group.
# RAW cells [5] = experiment: Active oxygen production in RAW cells (MitoSOX Red); format: cell-based
# Experimental: RAW cells were seeded on a 96-well plate for fluorescence at 20 000 cells/well (D-MEM high glucose medium containing 10% inactivated FBS). […] Sixteen hours later, cells were treated with an HBSS solution containing dissolved MitoSOX™ Red Mitochondrial Superoxide Indicator (Invitrogen™) for 30 minutes, and the medium was replaced with D-MEM high glucose medium containing 1% inactivated FBS. Active oxygen production in mitochondria was determined by measuring fluorescence (Ex 510 nm, Em 580 nm) by using a plate reader (Infinite M Plex, Tecan). Cells for four wells were analyzed for each group.
# [6] = anticancer agent alone, 24 hours, FIG. 12-1
# [7] = anticancer agent alone, 16 hours, FIG. 13-1
Molecule,number of viable RAW cells (RAW cells [4]; [6]),active oxygen production in mitochondria of RAW cells (RAW cells [5]; [7]),active oxygen production in mitochondria of RAW cells (RAW cells [5]),further results
mangafodipir [reference compound],–,–,–,necrosis of liver cells caused by OXA [1]: the suppressive effect on necrosis of liver cells caused by OXA was not observed; neurite retraction caused by oxaliplatin ([2]; test substance 5 μg/mL): a weak suppressing tendency was observed; neurite retraction caused by oxaliplatin ([2]; test substance at concentrations higher than 5 μg/mL (up to 50 μg/mL)): no higher retraction suppressing effect was observed
O=C1[O][Pt]2([NH][C@@H]3CCCC[C@H]3[NH]2)[O]C1=O [oxaliplatin],decreased the number of viable cells dependently on the concentration of the anticancer agent,induced active oxygen production dependently on the concentration of the anticancer agent,–,proliferation of large intestine cancer cells [3]: Suppression of proliferation of large intestine cancer cells caused by OXA was confirmed
N.N.[Cl][Pt][Cl] [cisplatin],–,–,induced active oxygen production dependently on the concentration of the anticancer agent,–
N.N.O=C([O-])C1(C(=O)[O-])CCC1.[Pt+2] [carboplatin],decreased the number of viable cells dependently on the concentration of the anticancer agent,induced active oxygen production dependently on the concentration of the anticancer agent,–,–
Nc1ccn([C@@H]2O[C@H](CO)[C@@H](O)C2(F)F)c(=O)n1 [gemcitabine],–,–,induced active oxygen production dependently on the concentration of the anticancer agent,number of viable RAW cells (RAW cells [4]): decreased the number of viable cells dependently on the concentration of the anticancer agent
